The values below come from PubChem BioAssay (NCI).

Test systems include IGROV1 ovarian; MDA-MB-435; UO-31 renal; SK-MEL-5 melanoma; SK-MEL-2 melanoma; SF-268 CNS; HCT-116 colon; SR leukemia.
What all share (assay): NCI anticancer screen, dose series, 48 h

Values joined by “and” are separate entries in the source; they are usually repeats but may differ in a detail not shown here. Equal entries are not always repeated.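 Step 1: Grow cells in 96-well plates. Step 2: Expose to compound for 48 hours at 5 concentrations. Step 3: Interpolate endpoints linearly; if unreached, use highest concentration. At the GI50, growth is halved. TGI marks complete inhibition of growth.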

As to `COc1c(B(O)O)cccc1-c1nc2c(F)cc3n[nH]c(C)c3c2c2c1CCCC2`, the GI50 in the test on IGROV1 ovarian was 1.12 µM; in the test on MDA-MB-435, 1.86 µM; in the test with UO-31 renal it was 0.225 µM; with SK-MEL-5 melanoma it was 0.932 µM; with SK-MEL-2 melanoma, 1.45 µM; in the test on SF-268 CNS, 0.666 µM. Moreover, the figures for the GI50 in the test with HCT-116 colon and with SR leukemia were 0.314 µM and 0.964 µM, respectively. In addition, the TGI with IGROV1 ovarian was more than 50 µM; with MDA-MB-435 it was more than 50 µM; with UO-31 renal, 3.07 µM; in the test with SK-MEL-5 melanoma, 2.96 µM; in the test on SK-MEL-2 melanoma it was 3.6 µM; with SF-268 CNS, 49.3 µM. For the same molecule, the TGI in the test on HCT-116 colon was more than 50 µM; with SR leukemia, more than 24.3 µM.

With `O=C(CCN1CCCN(c2cnc3ccccc3n2)CC1)c1csc2ccccc12`, the GI50 with IGROV1 ovarian was 16.2 µM; in the test with MDA-MB-435 it was 18.1 µM; in the test on UO-31 renal, 14.8 µM; with SK-MEL-5 melanoma it was 16.2 µM; in the test with SK-MEL-2 melanoma, 27.3 µM; with SF-268 CNS it was 19.4 µM. The GI50 is 16.5 µM with HCT-116 colon and 24 µM in the test with SR leukemia. Also, the TGI stood at 31.2 µM in the test on IGROV1 ovarian; 32.2 µM in the test on MDA-MB-435; 28 µM in the test on UO-31 renal; 30 µM in the test on SK-MEL-5 melanoma; 76.5 µM with SK-MEL-2 melanoma; 38.6 µM in the test on SF-268 CNS. The TGI in the test with HCT-116 colon was determined as 30.1 µM; in the test on SR leukemia, 56.7 µM.

Turning to `C=CC(=O)N1CCC[C@@H](n2nc(-c3ccc(Oc4ccccc4)cc3)c3c(N)ncnc32)C1`, the GI50 was 0.418 µM in the test on IGROV1 ovarian; more than 10 µM in the test on MDA-MB-435; 1.1 µM with UO-31 renal; more than 10 µM in the test on SK-MEL-5 melanoma; more than 10 µM in the test on SK-MEL-2 melanoma; more than 4.98 µM in the test on SF-268 CNS. For the same molecule, the GI50 with HCT-116 colon and with SR leukemia was more than 10 µM throughout. Moreover, the TGI in the test on IGROV1 ovarian, in the test with MDA-MB-435, with UO-31 renal, with SK-MEL-5 melanoma, with SK-MEL-2 melanoma and in the test with SF-268 CNS was more than 10 µM each time. Also, the TGI with HCT-116 colon and in the test with SR leukemia was more than 10 µM in each case.

As for `CCOc1ccc2c(c1)C(=O)c1c-2n(CCCN=[N+]=[N-])c(=O)c2cc([N+](=O)[O-])ccc12`, the GI50 in the test on IGROV1 ovarian is 0.195 µM; with MDA-MB-435, 39.4 µM; with UO-31 renal it was 2.23 µM; in the test on SK-MEL-5 melanoma it was 1.48 µM; with SK-MEL-2 melanoma it was 14.4 µM; in the test on SF-268 CNS, 1.42 µM. In addition, the values for the GI50 in the test with HCT-116 colon and in the test with SR leukemia were 1.82 µM and 0.176 µM, respectively. Besides, the TGI with IGROV1 ovarian is 16.1 µM; in the test on MDA-MB-435, more than 100 µM; in the test on UO-31 renal, 11.5 µM; in the test on SK-MEL-5 melanoma, 4.84 µM; with SK-MEL-2 melanoma, 38.2 µM; in the test with SF-268 CNS it was 38.4 µM. The TGI was more than 100 µM in the test with HCT-116 colon and 11.9 µM in the test on SR leukemia.

As for `CC[C@@H](C)/C=C(C)/C=C/C(=O)c1c(O)c(-c2ccc(O)cc2)cn(OC2CC(=O)CCC(C)OC(=O)CC2O)c1=O` (some centres not stated), the GI50 was 0.316 µM in the test on IGROV1 ovarian; 0.485 µM in the test on MDA-MB-435; 0.255 µM with UO-31 renal; 0.271 µM with SK-MEL-5 melanoma; 0.489 µM in the test on SK-MEL-2 melanoma; 0.282 µM in the test on SF-268 CNS. Besides, the figures for the GI50 with HCT-116 colon and with SR leukemia were 0.272 µM and 0.21 µM, respectively. Further, the TGI in the test on IGROV1 ovarian came out at 4.66 µM; with MDA-MB-435, 19 µM; in the test with UO-31 renal, 1.92 µM; in the test on SK-MEL-5 melanoma, 0.978 µM; in the test with SK-MEL-2 melanoma, 15.6 µM; in the test on SF-268 CNS, 9.39 µM. The TGI came out at 13 µM in the test with HCT-116 colon and 1.27 µM with SR leukemia.

With `CN(C)c1ccc(/C=c2/c3cc(O)ccc3n3c2cc(-c2ccccc2)[n+]3C)cc1`, the TGI in the test on IGROV1 ovarian is 1.47 µM; in the test with MDA-MB-435, 2.29 µM; in the test on UO-31 renal, 31.7 µM; in the test on SK-MEL-5 melanoma, 2.04 µM; in the test with SK-MEL-2 melanoma, 2.55 µM; in the test on SF-268 CNS, 1.55 µM. The molecule further had a TGI in the test with SR leukemia of 4.41 µM. In addition, the GI50 in the test on UO-31 renal is 4.45 µM; with HCT-116 colon, 1.1 µM.

As for `NC1(C(=O)N[C@@H](CCO)c2ccc(Cl)cc2)CCN(c2ncnc3[nH]ccc23)CC1`, the GI50 in the test on IGROV1 ovarian was 0.102 µM and 0.27 µM; in the test on MDA-MB-435, 2.34 µM and 4.94 µM; in the test on UO-31 renal, 1.17 µM and 5.53 µM; in the test on SK-MEL-5 melanoma, > 3.51 µM and 19.1 µM; in the test on SK-MEL-2 melanoma, > 4.51 µM and 16.3 µM; in the test with SF-268 CNS, > 2.26 µM and 32.2 µM. In addition, the GI50 is 2.75 µM and 10.7 µM with HCT-116 colon; 2.24 µM and 5.95 µM with SR leukemia. In addition, the TGI in the test with IGROV1 ovarian is more than 100 µM; in the test with MDA-MB-435, more than 100 µM; in the test on UO-31 renal, > 5.24 µM and 72.1 µM; with SK-MEL-5 melanoma, > 5.59 µM and 62 µM; with SK-MEL-2 melanoma, more than 82.8 µM; with SF-268 CNS it was more than 100 µM. Also, the TGI with HCT-116 colon was > 10 µM and 78.6 µM; in the test on SR leukemia, > 10 µM and 39.5 µM.

Turning to `CCCCOC(=O)c1c(C)[nH]c(/C=C2\N=C(c3ccc[nH]3)C=C2OC)c1C`, the GI50 is 0.232 µM with IGROV1 ovarian; 0.123 µM in the test on MDA-MB-435; 0.137 µM in the test with UO-31 renal; 0.1 µM with SK-MEL-5 melanoma; 0.103 µM in the test on SK-MEL-2 melanoma; 0.242 µM with SF-268 CNS. The GI50 was 0.0412 µM in the test with HCT-116 colon and 0.0821 µM with SR leukemia. Also, the TGI with IGROV1 ovarian came to 2.39 µM; in the test on MDA-MB-435, 1.74 µM; with UO-31 renal, 0.337 µM; in the test with SK-MEL-5 melanoma, 0.265 µM; with SK-MEL-2 melanoma, 0.381 µM; with SF-268 CNS, 9.07 µM. In addition, the TGI is 1.36 µM in the test on HCT-116 colon and 1.47 µM in the test on SR leukemia.

For the molecule `Cc1cc(-c2cc(OC(=O)c3ccccc3)ccc2Cl)cc2nnc(Nc3ccc(OCCN4CCCC4)cc3)nc12`, the GI50 was 1.76 µM in the test on IGROV1 ovarian; 1.62 µM in the test on MDA-MB-435; 1.19 µM in the test on UO-31 renal; 1.52 µM in the test on SK-MEL-5 melanoma; 1.78 µM in the test with SK-MEL-2 melanoma; 1.88 µM with SF-268 CNS. The GI50 in the test on HCT-116 colon is 1.59 µM; in the test on SR leukemia, 0.46 µM. For the same molecule, the TGI in the test with IGROV1 ovarian worked out at 3.78 µM; with MDA-MB-435, 3.02 µM; in the test on UO-31 renal, 2.44 µM; in the test on SK-MEL-5 melanoma it was 2.89 µM; with SK-MEL-2 melanoma it was 3.45 µM; with SF-268 CNS it was 3.75 µM. For the same molecule, the TGI in the test with HCT-116 colon amounted to 3.16 µM; with SR leukemia, 2.48 µM.
